Experimental data published in patent publication US9303016B2, “Derivatives of aza adamantane and uses thereof” (CONNEXIOS LIFE SCIENCES PVT. LTD., priority 2011, dated 2016).

molecular target: T1, human full length HSD11β1 (Homo sapiens, UniProt P28845); test: In Vitro HSD11β1 Inhibition Assay; format: cell-based; conditions: CHO cells transiently expressing human HSD11β1; 200 nM cortisone+500 uM NADPH overnight; cortisone to cortisol by LC/MS-MS; read-out: 11βHSD1 (IC50)
T1 construct: transient expression of human full length HSD11β1 expression vector; host or cells: CHO cells, transient transfection
T1 sequence (P28845 whole entry): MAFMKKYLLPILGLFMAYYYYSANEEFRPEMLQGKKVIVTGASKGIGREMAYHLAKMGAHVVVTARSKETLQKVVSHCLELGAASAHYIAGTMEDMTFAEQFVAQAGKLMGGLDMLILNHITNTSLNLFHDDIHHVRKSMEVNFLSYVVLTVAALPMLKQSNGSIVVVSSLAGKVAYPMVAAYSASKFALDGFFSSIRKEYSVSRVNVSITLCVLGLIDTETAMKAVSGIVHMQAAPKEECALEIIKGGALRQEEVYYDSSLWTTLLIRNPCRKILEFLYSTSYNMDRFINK
Method in brief: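 Whole-cell assay in CHO cells transiently transfected with full-length human HSD11β1, re-seeded 24 h after transfection. Cells incubated overnight with 200 nM cortisone plus 500 uM NADPH, with or without inhibitor. Cortisone-to-cortisol conversion measured by LC/MS-MS; IC50 (nM) from an 8-point log concentration-inhibition curve.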

IC50 | SMILES
> 250 nM | COc1cc2c(C(C)CC(=O)N3C4CC5CC3CC(O)(C5)C4)c[nH]c2cc1Cl (stereo not drawn) [Compound 117, 3-(6-chloro-5-methoxy-1H-indol-3-yl)-1-(5-hydroxy-2-azatricyclo[3.3.1.1^3,7]dec-2-yl)butan-1-one]
150 to 200 nM | CC(CC(=O)N1C2CC3CC1CC(O)(C3)C2)c1nc2cc(Cl)ccc2s1 (stereo not drawn) [Compound 190, 3-(5-chloro-1,3-benzothiazol-2-yl)-1-(5-hydroxy-2-azatricyclo[3.3.1.1^3,7]dec-2-yl)butan-1-one]
> 250 nM | CC(CC(=O)N1C2CC3CC(C2)CC1C3)c1c[nH]c2ccc(OS(C)(=O)=O)cc12 (stereo not drawn) [Compound 229, 3-(4-(2-azaadamantan-2-yl)-4-oxobutan-2-yl)-1H-indol-5-yl methanesulfonate]
> 250 nM | Cn1cc(C(C)(C)CC(=O)N2C3CC4CC2CC(O)(C4)C3)c2ccccc21 [Example 10, 1-(5-hydroxy-2-azatricyclo[3.3.1.1^3,7]dec-2-yl)-3-methyl-3-(1-methyl-1H-indol-3-yl)butan-1-one]
> 250 nM | O=C(CCc1nc2ccccc2s1)N1C2CC3CC1CC(O)(C3)C2 [Example 12, 3-(1,3-benzothiazol-2-yl)-1-(5-hydroxy-2-azatricyclo[3.3.1.1^3,7]dec-2-yl)propan-1-one]
< 100 nM | CC(CC(=O)N1C2CC3CC1CC(O)(C3)C2)c1nc2ccc(Cl)cc2s1 (stereo not drawn) [Compound 192, 3-(6-chloro-1,3-benzothiazol-2-yl)-1-(5-hydroxy-2-azatricyclo[3.3.1.1^3,7]dec-2-yl)butan-1-one]
> 250 nM | CC(CC(=O)N1C2CC3CC1CC(C(=O)O)(C3)C2)c1c[nH]c2cccc(-c3ccco3)c12 (stereo not drawn) [Compound 222, 2-(3-(4-(furan-2-yl)-1H-indol-3-yl)butanoyl)-2-azaadamantane-5-carboxylic acid]
< 100 nM | CC(CC(=O)N1C2CC3CC1CC(C#N)(C3)C2)c1c[nH]c2nccc(C3CC3)c12 (stereo not drawn) [Compound 136, 2-[3-(4-cyclopropyl-1H-pyrrolo[2,3-b]pyridin-3-yl)butanoyl]-2-azatricyclo[3.3.1.1^3,7]decane-5-carbonitrile]
200 to 250 nM | CC(CC(=O)N1C2CC3CC1CC(O)(C3)C2)c1c[nH]c2cccc(Cl)c12 (single isomer, unassigned) [Example 36, 3-(4-chloro-1H-indol-3-yl)-1-(5-hydroxy-2-azatricyclo[3.3.1.1^3,7]dec-2-yl)butan-1-one]
100 to 150 nM | O=C(O)CC12CC3CC(C1)N(C(=O)CC(c1cccs1)c1c[nH]c4cccc(F)c14)C(C3)C2 (stereo not drawn) [Compound 159, {2-[3-(4-fluoro-1H-indol-3-yl)-3-(thiophen-2-yl)propanoyl]-2-azatricyclo[3.3.1.1^7]dec-5-yl}acetic acid]

Continued, molecule first:

SMILES | IC50
O=C(CC(c1ccccc1)c1c[nH]c2cc(Cl)ccc12)N1C2CC3CC1CC(C(=O)O)(C3)C2 (single isomer, unassigned) [Compound 141, 2-[3-(6-chloro-1H-indol-3-yl)-3-phenylpropanoyl]-2-azatricyclo[3.3.1.1^3,7]decane-5-carboxylic acid] | 100 to 150 nM
Cc1cccc2[nH]cc(C(C)CC(=O)N3C4CC5CC3CC(c3nnn[nH]3)(C5)C4)c12 (stereo not drawn) [Compound 77, 3-(4-methyl-1H-indol-3-yl)-1-[5-(1H-tetrazol-5-yl)-2-azatricyclo[3.3.1.1^3,7]dec-2-yl]butan-1-one] | > 250 nM
COc1ccc2[nH]cc(C(C)CC(=O)N3C4CC5CC3CC(O)(C5)C4)c2c1 (stereo not drawn) [Compound 109, 1-(5-hydroxy-2-azatricyclo[3.3.1.1^3,7]dec-2-yl)-3-(5-methoxy-1H-indol-3-yl)butan-1-one] | > 250 nM
Cc1[nH]c2ccc(F)cc2c1C(C)CC(=O)N1C2CC3CC1CC(O)(C3)C2 (stereo not drawn) [Compound 113, 3-(5-fluoro-2-methyl-1H-indol-3-yl)-1-(5-hydroxy-2-azatricyclo[3.3.1.1^3,7]dec-2-yl)butan-1-one] | > 250 nM
CC(CC(=O)N1C2CC3CC1CC(O)(C3)C2)c1c[nH]c2cccc(C3CC3)c12 (single isomer, unassigned) [Compound 102, 3-(4-cyclopropyl-1H-indol-3-yl)-1-(5-hydroxy-2-azatricyclo[3.3.1.1^3,7]dec-2-yl)butan-1-one] | < 100 nM
O=C(CC(c1c[nH]c2ccccc12)C1CC1)N1C2CC3CC1CC(O)(C3)C2 (stereo not drawn) [Example 66, 3-cyclopropyl-1-(5-hydroxy-2-azatricyclo[3.3.1.1^3,7]dec-2-yl)-3-(1H-indol-3-yl)propan-1-one] | > 250 nM
Cc1cccc2c1c(C(C)CC(=O)N1C3CC4CC1CC(O)(C4)C3)cn2C (stereo not drawn) [Compound 206, 3-(1,4-dimethyl-1H-indol-3-yl)-1-(5-hydroxy-2-azatricyclo[3.3.1.1^3,7]dec-2-yl)butan-1-one] | > 250 nM
CC(CC(=O)N1C2CC3CC1CC(CC(=O)O)(C3)C2)c1c[nH]c2cccc(Cl)c12 (stereo not drawn) [Compound 145, {2-[3-(4-chloro-1H-indol-3-yl)butanoyl]-2-azatricyclo[3.3.1.1^3,7]dec-5-yl}acetic acid] | 100 to 150 nM
CC(CC(=O)N1C2CC3CC1CC(F)(C3)C2)c1nc2ccccc2s1 (stereo not drawn) [Compound 106, 3-(1,3-benzothiazol-2-yl)-1-(5-fluoro-2-azatricyclo[3.3.1.1^3,7]dec-2-yl)butan-1-one] | 100 to 150 nM
O=C(CC(c1ccccc1)c1c[nH]c2cccc(F)c12)N1C2CC3CC1CC(C(=O)O)(C3)C2 (stereo not drawn) [Compound 111, 2-[3-(4-fluoro-1H-indol-3-yl)-3-phenylpropanoyl]-2-azatricyclo[3.3.1.1^3,7]decane-5-carboxylic acid] | > 250 nM
CC(C)C(CC(=O)N1C2CC3CC1CC(O)(C3)C2)c1c[nH]c2cccc(F)c12 (stereo not drawn) [Example 25, 3-(4-fluoro-1H-indol-3-yl)-1-(5-hydroxy-2-azatricyclo[3.3.1.1^3,7]dec-2-yl)-4-methylpentan-1-one] | > 250 nM
CC(C)C(CC(=O)N1C2CC3CC1CC(O)(C3)C2)c1c[nH]c2ccccc12 (stereo not drawn) [Example 23, 1-(5-hydroxy-2-azatricyclo[3.3.1.1^3,7]dec-2-yl)-3-(1H-indol-3-yl)-4-methylpentan-1-one] | > 250 nM
CC(CC(=O)N1C2CC3CC(C2)C(O)C1C3)c1c[nH]c2ccccc12 (stereo not drawn) [Example 18, 1-(4-hydroxy-2-azatricyclo[3.3.1.1^3,7]dec-2-yl)-3-(1H-indol-3-yl)butan-1-one] | 100 to 150 nM
CC(CC(=O)N1C2CC3CC1CC(C(=O)O)(C3)C2)c1c[nH]c2cccc(Br)c12 (stereo not drawn) [Example 55, 2-[3-(4-bromo-1H-indol-3-yl)butanoyl]-2-azatricyclo[3.3.1.1^3,7]decane-5-carboxylic acid] | > 250 nM
CC(CC(=O)N1C2CC3CC1CC(O)(C3)C2)c1cn(S(C)(=O)=O)c2cccc(Cl)c12 (stereo not drawn) [Example 46, 3-[4-chloro-1-(methylsulfonyl)-1H-indol-3-yl]-1-(5-hydroxy-2-azatricyclo[3.3.1.1^3,7]dec-2-yl)butan-1-one] | > 250 nM
O=C(CC(c1ccccc1)c1c[nH]c2cc(F)ccc12)N1C2CC3CC1CC(C(=O)O)(C3)C2 (stereo not drawn) [Compound 112, 2-[3-(6-fluoro-1H-indol-3-yl)-3-phenylpropanoyl]-2-azatricyclo[3.3.1.1^3,7]decane-5-carboxylic acid] | 200 to 250 nM

system: not given; test: not given; conditions: phase IIa, 28-days, placebo-controlled, two-step hyperinsulinemic clamp studies; cited from earlier work

SMILES | safety and tolerability
CNC(=O)c1ccc(-c2ccc(C3(C(=O)N4CC[C@@]5(C4)OC(=O)c4ccccc45)CC3)cc2)cn1 [INCB13739] | safe and well tolerated
